Assays:
Test in all cases: relative viability (nuclei count vs DMSO), 5 days (fraction); higher = more cells survive
[1] = compound: C[As](C)SC[C@H](NC(=O)CC[C@H](N)C(=O)O)C(=O)NCC(=O)O [Darinaparsin] + Cc1nc(Nc2ncc(C(=O)Nc3c(C)cccc3Cl)s2)cc(N2CCN(CCO)CC2)n1 [Dasatinib] (partner 0.075 µM)
Outline: (§1)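 Dosing by pin tool came one day after lung cancer cell lines were seeded in 1536-well plates, using either one drug or a fixed anchor-drug dose plus five library-drug doses (not always all listed) in √10 steps. After 5 days, nuclei were counted on 4× images. Relative viability is treated-well nuclei count divided by vehicle-well nuclei count, and values are medians of duplicate plates.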

[2] = compound: C1CC2=C(C1)C=C(C=C2)OC3=NC(=C4C(=N3)N(C=N4)CC5=CC=C(C=C5)C6=CC=CC=C6)N[C@@H](CC7=CC=CC=C7)CO [QS11] + CC1(C)CCC(c2ccc(Cl)cc2)=C(CN2CCN(c3ccc(C(=O)NS(=O)(=O)c4ccc(N[C@H](CCN5CCOCC5)CSc5ccccc5)c(S(=O)(=O)C(F)(F)F)c4)cc3)CC2)C1 [Navitoclax] (partner 0.5 µM)
Outline: as §1

[3] = compound: CC1=C(C=C(C=C1)NC(=O)C2=CC(=CC=C2)C(C)(C)C#N)NC3=CC4=C(C=C3)N=CN(C4=O)C [AZ628] + O=C(CCCCCCC(=O)Nc1ccccc1)NO [Vorinostat] (partner 1 µM)
Outline: as §1

[4] = compound: C1CC2=C(C1)C=C(C=C2)OC3=NC(=C4C(=N3)N(C=N4)CC5=CC=C(C=C5)C6=CC=CC=C6)N[C@@H](CC7=CC=CC=C7)CO [QS11] + CS(=O)(=O)CCNCc1ccc(-c2ccc3ncnc(Nc4ccc(OCc5cccc(F)c5)c(Cl)c4)c3c2)o1 [Lapatinib] (partner 2 µM)
Outline: as §1

| Cell Line | relative viability ([1]; first compound 0.08 µM) | relative viability ([1]; first compound 2.53 µM) | relative viability ([1]; first compound 8 µM) | relative viability ([2]; first compound 0.08 µM) | relative viability ([2]; first compound 0.253 µM) | relative viability ([2]; first compound 0.8 µM) | relative viability ([2]; first compound 2.53 µM) | relative viability ([2]; first compound 8 µM) | relative viability ([3]; first compound 0.08 µM) | relative viability ([3]; first compound 0.253 µM) | relative viability ([3]; first compound 0.8 µM) | relative viability ([3]; first compound 2.53 µM) | relative viability ([3]; first compound 8 µM) | relative viability ([4]; first compound 0.08 µM) | relative viability ([4]; first compound 0.253 µM) | relative viability ([4]; first compound 0.8 µM) | relative viability ([4]; first compound 2.53 µM) | relative viability ([4]; first compound 8 µM) | relative viability ([1]; first compound 0.8 µM) |
| --- | --- | --- | --- | --- | --- | --- | --- | --- | --- | --- | --- | --- | --- | --- | --- | --- | --- | --- | --- |
| NCI-H2347 | 0.286 | 0.306 | 0.289 | 0.598 | 0.826 | 0.716 | 0.743 | 0.839 | 0.46 | 0.642 | 0.447 | 0.439 | 0.335 | 0.867 | 0.93 | 0.795 | 0.859 | 1.02 | – |
| NCI-H2405 | 0.203 | 0.223 | 0.221 | 0.778 | 0.757 | 0.901 | 0.894 | 0.768 | 0.884 | 0.8 | 0.69 | 0.707 | 0.586 | 0.951 | 1.02 | 1.02 | 1.29 | 1.07 | 0.232 |
| NCI-H3122 | 0.998 | 0.71 | 0.968 | 1.01 | 1.06 | 0.698 | 1.06 | 0.817 | 0.932 | 0.921 | 0.737 | 0.768 | 0.496 | 1.03 | 1.14 | 0.71 | 1.16 | 0.824 | 0.73 |
| PC-3 [JPC-3] | 1.11 | 0.826 | 1.01 | 0.738 | 0.884 | 0.771 | 0.84 | 0.938 | 1.15 | 0.7 | 0.891 | 0.793 | 0.709 | 0.464 | 0.409 | 0.436 | 0.5 | 0.435 | 1 |
| PC-14 | 0.189 | 0.245 | 0.211 | 1.1 | 1.02 | 0.95 | 1.03 | 0.921 | 0.762 | 0.745 | 0.632 | 0.677 | 0.232 | 0.277 | 0.315 | 0.257 | 0.249 | 0.329 | 0.24 |
| RERF-LC-KJ | 0.916 | 0.621 | 0.758 | 0.996 | 1.31 | 0.98 | 0.896 | 0.725 | 0.779 | 0.735 | 0.741 | 0.677 | 0.656 | 0.588 | 0.877 | 0.577 | 0.77 | 0.882 | 0.87 |
| SK-LU-1 | 0.173 | 0.173 | 0.183 | 0.795 | 0.871 | 0.646 | 0.487 | 0.479 | 0.595 | 0.896 | 0.726 | 0.758 | 0.611 | 0.704 | 0.868 | 0.963 | 0.803 | 0.838 | 0.107 |
| SK-MES-1 | 0.284 | 0.344 | 0.345 | 1.43 | 1.25 | 1.21 | 1.45 | 1.37 | 1.07 | 1.18 | 1.04 | 1.1 | 0.572 | 0.475 | 0.432 | 0.498 | 0.457 | 0.45 | 0.258 |
| SW 1573 | 0.498 | 0.299 | 0.656 | 0.937 | 0.795 | 0.9 | 0.842 | 0.564 | 1.01 | 0.641 | 0.592 | 0.575 | 0.508 | 1.02 | 1.14 | 1.1 | 1.05 | 1.2 | 0.625 |
| UMC-11 | 0.711 | 0.401 | 0.578 | 0.293 | 0.308 | 0.298 | 0.424 | 0.54 | 0.442 | 0.336 | 0.361 | 0.328 | 0.36 | 0.873 | 0.984 | 0.874 | 1.16 | 1.33 | 0.473 |

— the supplement of paper PMC10307832
